Data: the supplement of paper PMC10307832

Experiments:
Test in all cases: relative viability (nuclei count vs DMSO), 5 days (fraction); higher = more cells survive
A-427 = test system: A-427
Method in brief: (§1)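 For relative viability, nuclei counts in treated wells were divided by those in vehicle wells. Lung cancer cell lines had been pin-tool dosed in 1536-well plates the day after seeding and cultured for 5 days, then fixed and stained in one step (final 0.05% Triton X-100, 1% formaldehyde, 1 ug/ml Hoechst) and imaged at 4×. Doses were one drug alone or a fixed anchor-drug dose plus five library-drug doses (not always all listed) in √10 steps, and values are duplicate-plate medians.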

ABC-1 = test system: ABC-1
Method in brief: as §1

COR-L23 = test system: COR-L23
Method in brief: as §1

EMC-BAC-2 = test system: EMC-BAC-2
Method in brief: as §1

HARA = test system: HARA
Method in brief: as §1

HOP-62 = test system: HOP-62
Method in brief: as §1

LK-2 = test system: LK-2
Method in brief: as §1

LXF-289 = test system: LXF-289
Method in brief: as §1

NCI-H1792 = test system: NCI-H1792
Method in brief: as §1

NCI-H1793 = test system: NCI-H1793
Method in brief: as §1

NCI-H1944 = test system: NCI-H1944
Method in brief: as §1

NCI-H1993 = test system: NCI-H1993
Method in brief: as §1

NCI-H2009 = test system: NCI-H2009
Method in brief: as §1

NCI-H2170 = test system: NCI-H2170
Method in brief: as §1

NCI-H3122 = test system: NCI-H3122
Method in brief: as §1

NCI-H596 = test system: NCI-H596
Method in brief: as §1

NCI-H727 = test system: NCI-H727
Method in brief: as §1

PC-3 [JPC-3] = test system: PC-3 [JPC-3]
Method in brief: as §1

SK-LU-1 = test system: SK-LU-1
Method in brief: as §1

SK-MES-1 = test system: SK-MES-1
Method in brief: as §1

SW 1573 = test system: SW 1573
Method in brief: as §1

SW 900 = test system: SW 900
Method in brief: as §1

Question: Which relative viability (A-427; first compound 0.005 µM) does the source give for `CC1(C)CCC(c2ccc(Cl)cc2)=C(CN2CCN(c3ccc(C(=O)NS(=O)(=O)c4ccc(N[C@H](CCN5CCOCC5)CSc5ccccc5)c(S(=O)(=O)C(F)(F)F)c4)cc3)CC2)C1` [Navitoclax] + Nc1ncn([C@H]2C[C@H](O)[C@@H](CO)O2)c(=O)n1 [Decitabine] (partner 2 µM) here?
Answer: 0.607

Question: And the relative viability (A-427; first compound 0.01581 µM)?
Answer: 0.534

Question: What about the relative viability (A-427; first compound 0.05 µM) of the same molecule?
Answer: 0.517

Question: What about the relative viability (A-427; first compound 0.1581 µM) of the same molecule?
Answer: 0.521

Question: And the relative viability (A-427; first compound 0.5 µM)?
Answer: 0.466

Question: And the relative viability (ABC-1; first compound 0.005 µM)?
Answer: 0.889

Question: What about the relative viability (ABC-1; first compound 0.01581 µM) of the same molecule?
Answer: 1.21

Question: What about the relative viability (ABC-1; first compound 0.05 µM) of the same molecule?
Answer: 1.02

Question: What about the relative viability (ABC-1; first compound 0.1581 µM) of the same molecule?
Answer: 0.986

Question: What about the relative viability (ABC-1; first compound 0.5 µM) of the same molecule?
Answer: 1

Question: What about the relative viability (COR-L23; first compound 0.005 µM) of the same molecule?
Answer: 0.428

Question: And the relative viability (COR-L23; first compound 0.01581 µM)?
Answer: 0.425

Question: And the relative viability (COR-L23; first compound 0.05 µM)?
Answer: 0.432

Question: And the relative viability (COR-L23; first compound 0.1581 µM)?
Answer: 0.428

Question: What about the relative viability (COR-L23; first compound 0.5 µM) of the same molecule?
Answer: 0.437

Question: And the relative viability (EMC-BAC-2; first compound 0.005 µM)?
Answer: 0.943

Question: What about the relative viability (EMC-BAC-2; first compound 0.01581 µM) of the same molecule?
Answer: 1.03

Question: What about the relative viability (EMC-BAC-2; first compound 0.05 µM) of the same molecule?
Answer: 0.963

Question: What about the relative viability (EMC-BAC-2; first compound 0.1581 µM) of the same molecule?
Answer: 0.915

Question: And the relative viability (EMC-BAC-2; first compound 0.5 µM)?
Answer: 0.911

Question: What about the relative viability (HARA; first compound 0.005 µM) of the same molecule?
Answer: 0.463

Question: What about the relative viability (HARA; first compound 0.01581 µM) of the same molecule?
Answer: 0.736

Question: And the relative viability (HARA; first compound 0.05 µM)?
Answer: 0.414

Question: What about the relative viability (HARA; first compound 0.1581 µM) of the same molecule?
Answer: 0.622

Question: And the relative viability (HARA; first compound 0.5 µM)?
Answer: 0.466

Question: And the relative viability (HOP-62; first compound 0.005 µM)?
Answer: 0.22

Question: What about the relative viability (HOP-62; first compound 0.01581 µM) of the same molecule?
Answer: 0.21

Question: What about the relative viability (HOP-62; first compound 0.05 µM) of the same molecule?
Answer: 0.173

Question: What about the relative viability (HOP-62; first compound 0.1581 µM) of the same molecule?
Answer: 0.191

Question: And the relative viability (HOP-62; first compound 0.5 µM)?
Answer: 0.205

Question: What about the relative viability (LK-2; first compound 0.005 µM) of the same molecule?
Answer: 0.295

Question: And the relative viability (LK-2; first compound 0.01581 µM)?
Answer: 0.279

Question: What about the relative viability (LK-2; first compound 0.05 µM) of the same molecule?
Answer: 0.235

Question: And the relative viability (LK-2; first compound 0.1581 µM)?
Answer: 0.267

Question: And the relative viability (LK-2; first compound 0.5 µM)?
Answer: 0.4

Question: What about the relative viability (LXF-289; first compound 0.005 µM) of the same molecule?
Answer: 0.347

Question: What about the relative viability (LXF-289; first compound 0.01581 µM) of the same molecule?
Answer: 0.389

Question: And the relative viability (LXF-289; first compound 0.05 µM)?
Answer: 0.349

Question: What about the relative viability (LXF-289; first compound 0.1581 µM) of the same molecule?
Answer: 0.349

Question: And the relative viability (LXF-289; first compound 0.5 µM)?
Answer: 0.428

Question: What about the relative viability (NCI-H1792; first compound 0.005 µM) of the same molecule?
Answer: 0.488

Question: And the relative viability (NCI-H1792; first compound 0.01581 µM)?
Answer: 0.644

Question: And the relative viability (NCI-H1792; first compound 0.1581 µM)?
Answer: 0.525

Question: And the relative viability (NCI-H1792; first compound 0.5 µM)?
Answer: 0.447

Question: And the relative viability (NCI-H1793; first compound 0.005 µM)?
Answer: 0.448

Question: What about the relative viability (NCI-H1793; first compound 0.01581 µM) of the same molecule?
Answer: 0.595

Question: What about the relative viability (NCI-H1793; first compound 0.1581 µM) of the same molecule?
Answer: 0.49

Question: And the relative viability (NCI-H1793; first compound 0.5 µM)?
Answer: 0.345

Question: What about the relative viability (NCI-H1944; first compound 0.005 µM) of the same molecule?
Answer: 0.466

Question: And the relative viability (NCI-H1944; first compound 0.01581 µM)?
Answer: 0.455

Question: And the relative viability (NCI-H1944; first compound 0.1581 µM)?
Answer: 0.384

Question: And the relative viability (NCI-H1944; first compound 0.5 µM)?
Answer: 0.396

Question: What about the relative viability (NCI-H1993; first compound 0.005 µM) of the same molecule?
Answer: 0.659

Question: And the relative viability (NCI-H1993; first compound 0.01581 µM)?
Answer: 0.751

Question: What about the relative viability (NCI-H1993; first compound 0.05 µM) of the same molecule?
Answer: 0.62

Question: And the relative viability (NCI-H1993; first compound 0.1581 µM)?
Answer: 0.56

Question: What about the relative viability (NCI-H1993; first compound 0.5 µM) of the same molecule?
Answer: 0.596

Question: And the relative viability (NCI-H2009; first compound 0.005 µM)?
Answer: 0.412

Question: And the relative viability (NCI-H2009; first compound 0.01581 µM)?
Answer: 0.441

Question: And the relative viability (NCI-H2009; first compound 0.05 µM)?
Answer: 0.382

Question: What about the relative viability (NCI-H2009; first compound 0.1581 µM) of the same molecule?
Answer: 0.342

Question: What about the relative viability (NCI-H2009; first compound 0.5 µM) of the same molecule?
Answer: 0.295

Question: And the relative viability (NCI-H2170; first compound 0.005 µM)?
Answer: 0.473

Question: And the relative viability (NCI-H2170; first compound 0.01581 µM)?
Answer: 0.484

Question: And the relative viability (NCI-H2170; first compound 0.05 µM)?
Answer: 0.475

Question: And the relative viability (NCI-H2170; first compound 0.1581 µM)?
Answer: 0.414

Question: What about the relative viability (NCI-H2170; first compound 0.5 µM) of the same molecule?
Answer: 0.434

Question: And the relative viability (NCI-H3122; first compound 0.005 µM)?
Answer: 0.407

Question: And the relative viability (NCI-H3122; first compound 0.01581 µM)?
Answer: 0.446

Question: And the relative viability (NCI-H3122; first compound 0.05 µM)?
Answer: 0.471

Question: What about the relative viability (NCI-H3122; first compound 0.1581 µM) of the same molecule?
Answer: 0.433

Question: What about the relative viability (NCI-H3122; first compound 0.5 µM) of the same molecule?
Answer: 0.444

Question: And the relative viability (NCI-H596; first compound 0.005 µM)?
Answer: 1.04

Question: And the relative viability (NCI-H596; first compound 0.01581 µM)?
Answer: 0.951

Question: What about the relative viability (NCI-H596; first compound 0.05 µM) of the same molecule?
Answer: 0.786

Question: What about the relative viability (NCI-H596; first compound 0.1581 µM) of the same molecule?
Answer: 0.998

Question: And the relative viability (NCI-H596; first compound 0.5 µM)?
Answer: 1.01

Question: What about the relative viability (NCI-H727; first compound 0.005 µM) of the same molecule?
Answer: 0.903

Question: What about the relative viability (NCI-H727; first compound 0.01581 µM) of the same molecule?
Answer: 1.08

Question: What about the relative viability (NCI-H727; first compound 0.05 µM) of the same molecule?
Answer: 0.839

Question: And the relative viability (NCI-H727; first compound 0.1581 µM)?
Answer: 0.786

Question: And the relative viability (NCI-H727; first compound 0.5 µM)?
Answer: 1.02

Question: And the relative viability (PC-3 [JPC-3]; first compound 0.005 µM)?
Answer: 0.922

Question: What about the relative viability (PC-3 [JPC-3]; first compound 0.01581 µM) of the same molecule?
Answer: 0.876

Question: What about the relative viability (PC-3 [JPC-3]; first compound 0.05 µM) of the same molecule?
Answer: 0.912

Question: What about the relative viability (PC-3 [JPC-3]; first compound 0.1581 µM) of the same molecule?
Answer: 0.758

Question: What about the relative viability (PC-3 [JPC-3]; first compound 0.5 µM) of the same molecule?
Answer: 0.653

Question: And the relative viability (SK-LU-1; first compound 0.005 µM)?
Answer: 0.577

Question: What about the relative viability (SK-LU-1; first compound 0.01581 µM) of the same molecule?
Answer: 0.577

Question: What about the relative viability (SK-LU-1; first compound 0.05 µM) of the same molecule?
Answer: 0.389

Question: What about the relative viability (SK-LU-1; first compound 0.1581 µM) of the same molecule?
Answer: 0.609

Question: What about the relative viability (SK-LU-1; first compound 0.5 µM) of the same molecule?
Answer: 0.469

Question: What about the relative viability (SK-MES-1; first compound 0.005 µM) of the same molecule?
Answer: 0.371

Question: What about the relative viability (SK-MES-1; first compound 0.01581 µM) of the same molecule?
Answer: 0.432

Question: And the relative viability (SK-MES-1; first compound 0.05 µM)?
Answer: 0.349

Question: And the relative viability (SK-MES-1; first compound 0.1581 µM)?
Answer: 0.344

Question: And the relative viability (SK-MES-1; first compound 0.5 µM)?
Answer: 0.372

Question: And the relative viability (SW 1573; first compound 0.005 µM)?
Answer: 0.498

Question: What about the relative viability (SW 1573; first compound 0.01581 µM) of the same molecule?
Answer: 0.683

Question: What about the relative viability (SW 1573; first compound 0.05 µM) of the same molecule?
Answer: 0.387

Question: And the relative viability (SW 1573; first compound 0.1581 µM)?
Answer: 0.386

Question: What about the relative viability (SW 1573; first compound 0.5 µM) of the same molecule?
Answer: 0.364

Question: And the relative viability (SW 900; first compound 0.005 µM)?
Answer: 0.406

Question: And the relative viability (SW 900; first compound 0.01581 µM)?
Answer: 0.412

Question: What about the relative viability (SW 900; first compound 0.1581 µM) of the same molecule?
Answer: 0.445

Question: What about the relative viability (SW 900; first compound 0.5 µM) of the same molecule?
Answer: 0.262
